Source: US11033537B2, “LPT-723 and immune checkpoint inhibitor combinations and methods of treatment” (BIOMED VALLEY DISCOVERIES, INC., priority 2015, dated 2021)
“Also recorded” adds a separate entry of the source.

Tests used:
[1] = Monkey cardiovascular (CV) study; format: in vivo; details: 25 and 40 mg/kg oral gavage, male monkeys, cross-over
[2] = Micronucleus assay (flow analysis, 7-day oral toxicity study); format: in vivo; details: rat blood, Day 8 of 7-day oral study
Experimental: Prior to necropsy on Day 8, rats in a main study group of a 7-day oral toxicity and toxicokinetic (TK) study were bled from the jugular vein for the evaluation of the flow analysis of micronucleus. […] The procedure used for collection and fixation of blood is summarized below:
Preparation of the Fixative Tubes: Fixative tubes were prepared one day prior to blood collection. Two 15 mL polypropylene centrifuge tubes (VWR no. 21008-103) were required per sample. 2 mL of ultracold fixative-methanol was added to each appropriately labeled tube (Tubes B1 and B2), and caps were replaced. The rack of tubes was placed overnight at approximately −80° C. to allow for sufficient chilling of the fixative.
Preparation of the Anticoagulant/Diluent Vials (prior to blood collection): One vial (2 mL cryovials; VWR no. 66008-728) was required for each sample. 350 μL of anticoagulant/diluent (Prototype Pig-a Mutation Assay Anticoagulant Solution, lot #17716, provided by BioReliance, from Litron) was aseptically aliquoted into each appropriately labeled vial (Tube A). […]
Transferring of Fixed Samples into LTSS: Samples were transferred into LTSS after they had been in the fixative for at least 3 days. […] With a container of ice and a 25 mL pipette ready for aliquoting the buffer solution used below, the following steps were performed as quickly as possible (within approximately 20 seconds). […]

[3] = Rat 28-day GLP toxicity study; format: in vivo, CD [Crl:CD (SD)] rats
Experimental: Vehicle and Test Article Preparation: The vehicle, 2% TPGS/1.5% HPMCAS-HF/1.5% PVP-VA with 50 mM pH 5.0 sodium citrate in deionized water, was prepared for use weekly and was stored at room temperature when not in use. A correction factor of 4 was used to adjust for purity when preparing the LPT-723 formulations. Appropriate amounts of the LPT-723 were mixed with the vehicle to achieve nominal concentrations of 0.3, 0.6, and 1.2 mg/mL. Formulations of the LPT-723 were prepared daily, stored at room temperature, protected from light, and were dosed within 4 hours of preparation.
Animal Acquisition and Acclimation: A total of 98 male and 98 female CD® [Crl:CD® (SD)] rats (approximately 6 to 7 weeks of age at receipt) were received from Charles River Laboratories, Portage, Mich. During the 10-day acclimation period, the animals were observed daily with respect to general health and any signs of disease. All animals were given a detailed clinical examination prior to selection for study. The animals were administered a sham dose of tap water on two occasions in the same manner and dose volume intended for use on study.
Randomization, Assignment to Study, and Maintenance: Using a standard, by weight, measured value randomization procedure, 85 male and 85 female animals (weighing 228 to 283 g and 170 to 218 g, respectively, at randomization) were assigned to the control and treatment groups identified in the following table.
Vehicle and LPT-723 Administration: Vehicle and LPT-723 were administered once daily for 22 days for main study animals at 12 mg/kg/day, for 23 days for TK animals at 12 mg/kg/day, and for 28 days for all animals at 0, 3, and 6 mg/kg/day. The animals were dosed via oral gavage at a dose volume of 10 mL/kg. The control group received the vehicle in the same manner as the treated groups. The vehicle and test article were dosed from stirred formulations at approximately the same time each day (±2 hours) based on the first animal dosed each day. Individual doses were based on the most recent body weights.

[4] = tested on: Colon26 murine colon cancer cells; assay: Prophylactic Colon26 colon cancer model; format: in vivo, BALB/c mice; details: alone or with antibody
Experimental: Charles River (CR) BALB/c mice were implanted with Colon26 murine colon cancer cells on Day 1, and treatment was initiated on Day 3 with control (vehicle), anti-CTLA-4 (clone 4F10), anti-PD-1 (clone RMP1-14), anti-CTLA-4/anti-PD-1 combination, LPT-723 (10 mpk, 30 mpk), anti-CTLA-4/LPT-723 (10 mpk, 30 mpk) combination, or anti-PD-1/LPT-723 (10 mpk, 30 mpk) combination. Anti-CTLA-4 was dosed i.p. on Day 8 at a dose of 100 μg/animal and on Days 11, and 14 at a dose of 50 μg/animal. Anti-PD-1 was dosed i.p. twice a week for two weeks starting on Day 3 at a dose of 100 μg/animal. LPT-723 was dosed per os (p.o.) twice a day starting on Day 3.

SMILES: Cc1cc(-c2cncc(C(O)C(F)(F)F)c2)nc2c1C(=O)N(c1cnn(CC(F)F)c1)C2(C)C (stereo not shown) [LPT-723]
- toxicological observations [1]: no significant toxicological observations
- toxicity, micronucleus flow analysis [2]: No toxicity was observed; also recorded: no significant toxicity
- therapeutic index [3]: < 4
- tolerability [3]: poorly tolerated
- NOAEL ([3]; both sexes, CD [Crl:CD (SD)], in vivo, oral gavage once daily, 3, 6, 12 mg/kg/day, read-out: no observed adverse effect level (NOAEL)): < 3 mg/kg
- circulating neutrophils ([3]; clinical chemistry): large increase in circulating neutrophils
- tissue findings ([3]; particularly gastrointestinal tract): inflammatory state in multiple organs
- % TGD ([4]; MR237 10 mg/kg bid): 0%
- T-C ([4]; MR237 10 mg/kg bid): −0
- TFS ([4]; MR237 10 mg/kg bid): 0
- Median TTE ([4]; MR237 10 mg/kg p.o. bid from Day 3 to end): 31.9
- % TGD ([4]; MR237 30 mg/kg bid): 5%
- T-C ([4]; MR237 30 mg/kg bid): 1.7
- TFS ([4]; MR237 30 mg/kg bid): 1
- MTV (n), Day 57 ([4]; MR237 30 mg/kg bid, Day 57): 0 (1)
- Median TTE ([4]; MR237 30 mg/kg p.o. bid from Day 3 to end): 33.7
